The subject of one assay is GBM-derived neurospheres. The experiment in a line: Neurosphere growth with growth factors. In kind it is cell-based, human. As to conditions: for neurosphere growth: maximal concentration of 20 ng/ml. The source says:
Previously described GBM cell lines were used for the instant in vitro studies (Hartman et al., Internat. J. One. 15: 975-982 (1999)). To create neurosphere cultures, two cell lines (G63 and G69) were sorted using a CD133 cell isolation kit (Miltenyi Biotech) according to manufacturer's instructions, and maintained in culture as described for primary GBM specimens (Singh et al., Nature 432: 396-401 (2004)). All neurosphere cultures were maintained in Neurobasal medium (Invitrogen) with N2 supplement (Invitrogen) and NSF1 (Cambrex). For growth studies, both EGF and IGF2 were added at a concentration of 20 ng/ml. Neurospheres of primary GBM were obtained as unsorted dissociate of primary tumor (from Drs. M. Westphal and K. Lamszuz, Univ. Hamburg), expanded and maintained under the same conditions described for cel line-derived neurospheres. Neurosphere assays were performed in triplicate.
When IGF2-dependent neurospheres were disassociated and subjected to a proliferation assay using increasing concentrations of EGF or IGF2, both growth factors induced rapid growth. The growth rate based on growth factor dosage produced an identical growth curve for each growth factor (FIG. 3B).

The test system of the next assay is tumor. As to conditions: nude mouse model, Teicher et al. 2002; cited from earlier work.

In the case of “IGF2: Recombinant IGF2 (R&D Systems, 292-G2), growth factor”, the neurosphere growth result in the assay on GBM-derived neurospheres is “proliferated rapidly”. For the same compound, the “proliferative response of neurospheres compared with EGF” value in the assay with GBM-derived neurospheres (neurosphere system) was “indistinguishable from the response to EGF”.
In the case of `Cl.Cn1cc(C2=C(c3cn(C4CCN(Cc5ccccn5)CC4)c4ccccc34)C(=O)NC2=O)c2ccccc21` [317615-HCL], the anti-tumor effect result in the assay on tumor is listed as “anti-tumor effect”.
“EGF: growth factor added to neurosphere cultures (NSDSECPLSHDGYCLHDGVCMYIEALDKYACNCVVGYIGERCQYRDLKWWELR; Epidermal growth factor; UniProt P01133 971-1023, looked up)”: the neurosphere growth entry in the assay with GBM-derived neurospheres is given as “proliferated rapidly”.

The values are drawn from patent US20090269351A1, “METHOD OF DIAGNOSING AND TREATING GLIOMA” (Genentech, Inc., priority 2006, published 2009).
